Where two headings read alike, the source gives them in different places.
How the values were obtained:
[1] = intrinsic clearance in mouse liver microsomes; type: in vitro ADME; conditions: for half-life at 0.5 μM: male, CD-1, read-out: T 1/2 mouse
Experimental: Immediately at time zero and at several serial times points up to 30 min, an aliquot of the incubation mixture was removed and mixed with acetonitrile to stop the reaction. Internal standard was added to all samples, the samples centrifuged to sediment precipitated protein and the plates then sealed prior to HPLC-MS/MS analysis. Metabolic stability expressed as a percentage of the parent molecule was calculated using the peak area ratio (compound peak area/internal standard peak area) of different compounds remaining after each incubation time compared to time zero of the incubation. The half-life (t1/2) was calculated using the following equation: t1/2=−ln(2)/k, where k is the turn-over rate constant of the ln (percent remaining) vs time regression.
CLint was calculated from the half-life (t1/2) using the following equations:
CLint (ml/min/g liver) = (0.693/(t1/2) x (ml of incubation/mg microsomal protein) x (mg microsomal protein/g liver).

[2] = test system: wild-type T. cruzi epimastigotes; test: epimastigote drug sensitivity assay, wild-type; type: cell-based; conditions: Trypanosoma cruzi; Table 2; wild-type epimastigotes; read-out: EC50 WT
Experimental: (§1) T. cruzi epimastigotes from the Silvio strain (MHOM/BR/78/Silvio; clone X10/7A) were grown at 28°C in RTH/FBS medium ([80]).
(§2) T. cruzi epimastigote assays carried out as described previously ([43]).

Property Forecast Index = type: physicochemical; conditions: number of aromatic rings + ChromLogD at pH 7.4
[3] = test system: T. cruzi culture derived trypomastigotes, strain Silvio X10/7 A1; test: trypomastigote assay; type: cell-based; conditions: Trypanosoma cruzi
Experimental: Trypomastigote assays using strain Silvio X10/7 subclone A1 were carried out as described in ([19]). Parasite culture and potency determinations for panel of strains were performed as in ([19]). Strains used were M6241 clone 6 (DTU III), ERA clone 2 (DTU IV), PAH179 clone 5 (DTU V) and CL Brener-Luciferase (PpyRE9h-expressing T. cruzi, same strain that is used in animal model studies ([67])) (DTU VI). […] For Y strain compound exposure time was 3 days. Rate-of-kill assays were carried out as described in ([39]).

Vero host cells = test: cytotoxicity against host cells in intracellular amastigote assay; type: cell-based; conditions: Chlorocebus sabaeus, Vero, host cell cytotoxicity
T. cruzi CYP51 = T. cruzi CYP51 (Trypanosoma cruzi, UniProt Q7Z1V1); test: T. cruzi CYP51 biochemical assay
Sequence of T. cruzi CYP51 (Q7Z1V1 whole entry): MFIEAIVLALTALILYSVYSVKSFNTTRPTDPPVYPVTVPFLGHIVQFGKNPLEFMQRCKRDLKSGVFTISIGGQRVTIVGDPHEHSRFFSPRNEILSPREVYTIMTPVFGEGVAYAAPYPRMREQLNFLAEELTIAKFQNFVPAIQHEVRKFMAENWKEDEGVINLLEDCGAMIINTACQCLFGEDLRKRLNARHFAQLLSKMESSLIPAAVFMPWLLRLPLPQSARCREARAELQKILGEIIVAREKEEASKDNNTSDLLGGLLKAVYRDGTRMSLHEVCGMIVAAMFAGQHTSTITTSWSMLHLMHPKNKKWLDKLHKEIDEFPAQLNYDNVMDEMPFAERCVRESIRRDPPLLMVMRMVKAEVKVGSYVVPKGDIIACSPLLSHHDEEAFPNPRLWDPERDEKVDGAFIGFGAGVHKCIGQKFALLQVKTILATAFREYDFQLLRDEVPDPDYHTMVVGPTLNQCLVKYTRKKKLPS

[4] = test system: intracellular T. cruzi amastigotes, strain Silvio X10/7 A1; test: intracellular T. cruzi amastigote potency assay; type: cell-based; conditions: Trypanosoma cruzi
[5] = bioanalysis of blood samples from in vivo efficacy studies; parameters: species or system BALB/c mice; conditions: for AUC(0-t) / Cmax: BALB/c, mouse, whole blood, po; for AUC0-7h Day 1, unbound concentrations of 4 / AUC0-7h Day 5, unbound concentrations of 4 / Cmax Day 1, unbound concentrations of 4 / Cmax Day 5, unbound concentrations of 4 / AUC0-7h Day 1, unbound concentrations of BNZ / AUC0-7h Day 5, unbound concentrations of BNZ / Cmax Day 1, unbound concentrations of BNZ / Cmax Day 5, unbound concentrations of BNZ: 5 days; for AUC0-7h Day 1, unbound concentrations of BNZ / AUC0-7h Day 5, unbound concentrations of BNZ / Cmax Day 1, unbound concentrations of BNZ / Cmax Day 5, unbound concentrations of BNZ: 30mg/kg qd
Experimental: Following the first daily dose on day 1 and last day of treatment, serial blood samples were taken by the tail vein from all treated mice pre-dose, then 30 minutes, 1, 2, 4, and 8 hours post-dose, mixed with two volumes of distilled water and analyzed for test compound. Quantification of compounds was performed by means of LC/MSMS and exposure parameters namely Cmax and AUClast were estimated using Phoenix 64 (Pharsight Certara).

FaSSIF solubility assay = type: physicochemical; conditions: pH 6.5, 4 h
Experimental: Solubility of test compounds in fasted simulated intestinal fluid (FaSSIF) was determined at pH 6.5 after 4 h equilibration at rt. An amount of1 mL of FaSSIF buffer (3 mM sodium taurocholate, 0.75 mM lecithin in sodium phosphate buffer at pH 6.5) was added to manually weighed 1 mg of solid compound in a 2 mL HPLC autosampler vial. The resulting suspension was shaken at 900 rpm for 4 h at rt and then transferred to a Multiscreen HTS, 96-well solubility filter plate. The residual solid was removed by filtration. The supernatant solution was quantified by HPLC−UV using single-point calibration of a known concentration of the compound in DMSO. The dynamic range of the assay was 1−1000 μg/mL.

[6] = test system: T. cruzi epimastigotes bearing mutations in cytochrome b; test: epimastigote drug sensitivity assay, cytochrome b mutant / resistant lines; type: cell-based, Trypanosoma cruzi; conditions: for EC50: Trypanosoma cruzi; for fold change from WT, L197I: compound 3-resistant line (L197I); for fold change from WT, F222L: compound 5-resistant line (F222L)
Experimental: as §1, §2
Compound-resistant cell lines were generated by subculturing clones of wild-type T. cruzi epimastigotes in the continuous presence of compound 3 or compound 5. Starting at sublethal concentrations, drug concentrations in 3 independent cultures were increased in a stepwise manner, usually by 2-fold. When parasites were able to survive and grow in compound concentrations equivalent to >30-fold their established EC50 value, they were cloned by limiting dilution in the presence of compound. Three independent clones were selected from each compound for further study.

[7] = test system: intracellular T. cruzi Silvio X10/7 A1 in Vero cells; test: washout outgrowth assay; type: cell-based, Trypanosoma cruzi; conditions: for relapse day after the end of treatment: 50× EC50 for five days
Experimental: Washout outgrowth assay: Vero cells were infected overnight in T600 flasks at a multiplicity of infection (MOI) 5 with T. cruzi Silvio X10/7 A1 trypomastigotes, followed by washing of the Vero monolayer to remove free trypomastigotes. 24 hours later the monolayer was trypsinised, 5.3 x 10^6 Vero cells were plated in T75 tissue culture flasks (in 20 ml MEM-Glutamax (ThermoFisher), 1% Fetal Calf Serum (FCS)), and treatment was started. For ten-day treatments, medium with compounds was replaced after the initial 5 days. For 16 day treatments the compounds were replaced every four days. For compound washout, all medium was aspirated, and flasks were washed three times with 10 ml serum-free MEM medium followed by a final aspiration and addition of 20 ml MEM-Glutamax (ThermoFisher) supplemented with 1% FCS. The cultures were then maintained until trypomastigotes were detected by light microscopy. Medium was replaced twice weekly and prior to each medium replacement microscopic evaluation was carried out (five fields per flask) for up to 60 days post washout. Robustness of the data was confirmed by profiling multiple compounds from the pyrrolopyrimidine series in a single experiment (compounds 2,3 and 4 in Fig. 2 and Fig. S17) as well as comparing results from independent experiments (compound 2 in Fig. 2, Fig. S5 and Fig. S7).

[8] = test system: chronic T. cruzi infection (CL Brener) in BALB/c mice; test: bioluminescent mouse model of chronic Chagas disease; type: in vivo, Trypanosoma cruzi; conditions: 5 days
[9] = read-out: Trypomastigotes pEC50 (converted)
[10] = read-out: Vero pEC50 (converted)
[11] = intracellular amastigotes Silvio X10/7 A1, 96 h, ± SD, min. three experiments, read-out: Amastigotes pEC50 (converted)
[12] = 4 10 mg/kg bid + BNZ 30mg/kg qd
[13] = 4 30 mg/kg bid + BNZ 30mg/kg qd
[14] = dosing group BNZ+ 3 (50mg/kg bid)

SMILES	Cl int mouse [1] [ml/min/g liver]	half-life at 0.5 μM [1] [min]	EC50 [2] [nM]	PFI (Property Forecast Index)	EC50 ([3]; read-out: Trypomastigotes EC50) [nM]	EC50 [3, 9] [nM]	EC50 (Vero host cells; read-out: Vero EC50) [nM]	EC50 (Vero host cells; [10]) [nM]	IC50 (T. cruzi CYP51) [nM]	EC50 [4, 11] [nM]	EC50 ([4]; read-out: Amastigotes EC50) [nM]	FaSSIF pH 6.5 (FaSSIF solubility assay) [µg/mL]	EC50 ([6]; read-out: EC50 F222L) [nM]	EC50 ([6]; read-out: EC50 L197I) [nM]	fold change from WT, L197I [6] [fold]	fold change from WT, F222L [6] [fold]	relapse day after the end of treatment [7] [days]	also measured
COc1cc(F)ccc1-c1c(C)[nH]c2nc(N)nc(C)c12 [Compound 2, 5-(4-Fluoro-2-methoxyphenyl)-4,6-dimethyl-7H-pyrrolo[2,3-d]pyrimidin-2-amine]	1.3	52	33 ± 2	6.4	30	31.6	> 50000	> 50100	> 100000	50.1	50	153	3620 ± 322	117 ± 5	4	109	14	AUC(0-t) ([5]; 50 mg/kg, compound 2 50mg/kg bid, 21-day study, read-out: AUC0-7h Day 1): 5280 ± 1230 ng·h/mL; AUC(0-t) ([5]; 50 mg/kg, compound 2 50mg/kg bid, 21-day study, read-out: AUC0-7h Day 21): 8860 ± 1210 ng·h/mL; Cmax ([5]; 50 mg/kg, compound 2 50mg/kg bid, 21-day study, read-out: Cmax Day 1): 870 ± 196 ng/mL; Cmax ([5]; 50 mg/kg, compound 2 50mg/kg bid, 21-day study, read-out: Cmax Day 21): 1470 ± 202 ng/mL; AUC(0-t) ([5]; 100 mg/kg, compound 2 100mg/kg bid (changed to qd after day 1), 10-day study, read-out: AUC0-7h Day 1): 6270 ± 1140 ng·h/mL; AUC(0-t) ([5]; 100 mg/kg, compound 2 100mg/kg bid (changed to qd after day 1), 10-day study, read-out: AUC0-7h Day 10): 11500 ± 1950 ng·h/mL; Cmax ([5]; 100 mg/kg, compound 2 100mg/kg bid (changed to qd after day 1), 10-day study, read-out: Cmax Day 1): 1250 ± 236 ng/mL; Cmax ([5]; 100 mg/kg, compound 2 100mg/kg bid (changed to qd after day 1), 10-day study, read-out: Cmax Day 10): 2260 ± 315 ng/mL
COc1ccc(-c2c(C)[nH]c3nc(N)nc(C)c23)c(OC)c1 [Compound 4, 5-(2,4-Dimethoxyphenyl)-4,6-dimethyl-7H-pyrrolo[2,3-d]pyrimidin-2-amine]	2.0	33	88 ± 3	6.1	50	50.1	> 50000	> 50100	> 100000	79.4	80	107	6380 ± 436	432 ± 15	5	73		AUC0-7h Day 1, unbound concentrations of 4 [5, 12]: 2419 ± 453 ng·h/mL; AUC0-7h Day 5, unbound concentrations of 4 [5, 12]: 1488 ± 292 ng·h/mL; Cmax Day 1, unbound concentrations of 4 [5, 12]: 496 ± 82 ng/mL; Cmax Day 5, unbound concentrations of 4 [5, 12]: 650 ± 203 ng/mL; AUC0-7h Day 1, unbound concentrations of 4 [5, 13]: 10441 ± 1994 ng·h/mL; AUC0-7h Day 5, unbound concentrations of 4 [5, 13]: 6773 ± 311 ng·h/mL; Cmax Day 1, unbound concentrations of 4 [5, 13]: 1931 ± 261 ng/mL; Cmax Day 5, unbound concentrations of 4 [5, 13]: 1577 ± 161 ng/mL; AUC0-7h Day 1, unbound concentrations of 4 ([5]; 4 50mg/kg bid alone): 16176 ± 776 ng·h/mL; AUC0-7h Day 5, unbound concentrations of 4 ([5]; 4 50mg/kg bid alone): 17378 ± 1605 ng·h/mL; Cmax Day 1, unbound concentrations of 4 ([5]; 4 50mg/kg bid alone): 2934 ± 294 ng/mL; Cmax Day 5, unbound concentrations of 4 ([5]; 4 50mg/kg bid alone): 3736 ± 628 ng/mL; 95% confidence interval for no-relapse ([8]; Fig. 6, compound 4 50 mg/kg bid): 0.01 − 0.58
O=C(Cn1ccnc1[N+](=O)[O-])NCc1ccccc1 [Benznidazole, reference compound]				4.3	4000	3980	> 50000	> 50100		2000	2000						14	AUC0-7h Day 1, unbound concentrations of BNZ ([5]; dosing group BNZ alone): 18788 ± 3214 ng·h/mL; AUC0-7h Day 5, unbound concentrations of BNZ ([5]; dosing group BNZ alone): 12583 ± 1812 ng·h/mL; Cmax Day 1, unbound concentrations of BNZ ([5]; dosing group BNZ alone): 6928 ± 1302 ng/mL; Cmax Day 5, unbound concentrations of BNZ ([5]; dosing group BNZ alone): 5230 ± 1373 ng/mL; AUC0-7h Day 1, unbound concentrations of BNZ [5, 14]: 15881 ± 4211 ng·h/mL; AUC0-7h Day 5, unbound concentrations of BNZ [5, 14]: 11350 ± 4513 ng·h/mL; Cmax Day 1, unbound concentrations of BNZ [5, 14]: 5188 ± 1385 ng/mL; Cmax Day 5, unbound concentrations of BNZ [5, 14]: 3725 ± 1302 ng/mL; 95% confidence interval for no-relapse ([8]; Fig. 3, BNZ 30 mg/kg qd, Adjusted Wald): 0.01 − 0.58; 95% confidence interval for no-relapse ([8]; Fig. 6, BNZ 30 mg/kg qd): 0.06 − 0.8; relapse day after compound washout ([7]; ten-day treatment): no relapse

Source: publication PMC7615676, “Short-course combination treatment for experimental chronic Chagas disease” (Science translational medicine, 2023)
